According to patent publication US10494338B2, “Prostaglandin derivative” (AGC INC., priority 2016, dated 2019):

Test system: rat platelet aggregation
Assay: Inhibitory action on rat platelet aggregation in vitro (ADP-induced, platelet-rich plasma)
Assay type: cell-based
Settings: SD rat PRP, ADP 2 μmol/L; relative activity from IC50, activity of IC50 value of PGE1 = 100
Protocol: Experimental Example 2: Evaluation of Inhibitory Action on Rat Platelet Aggregation In Vitro (1) Preparation of Rat Platelet-Rich Plasma In the same manner as in the above-mentioned Experimental Example 1(1), blood samples were collected from the abdominal artery of 8- to 9-week-old male SD rats. PRP was diluted with PPP and the number of platelet was adjusted to 63.2×10^4/μL. (2) Measurement of Platelet Aggregation Ability In the same manner as in the above-mentioned Experimental Example 1(2) except that the final concentration of ADP was 2 μmol/L, the compound of the present invention, prostaglandin E1 (PGE1:positive control substance) or vehicle control was added as a test substance, and the maximum response of aggregation was measured. (3) Evaluation of Platelet Aggregation Inhibitory Action In the same manner as in the above-mentioned Experimental Example 1(3), IC50 values were determined from the aggregation inhibition ratio of the test substance, and the relative activity (%) of each test substance was calculated by defining the activity of IC50 value of PGE1 as 100.

Structure (SMILES) | Relative activity (%)
CCC#CC[C@H](C)C(O)/C=C/[C@H]1[C@H](O)CC(=O)[C@@H]1CCSC/C=C/C(=O)OC (mixture of isomers) [compound (1)-2, methyl (2E)-4-((2-((1R,2R,3R)-3-hydroxy-2-((1E,3RS,4S)-3-hydroxy-4-methylnon-1-en-6-yn-1-yl)-5-oxocyclopentyl)ethyl)thio)but-2-enoate] | 62%
CCC#CC[C@H](C)C(O)/C=C/[C@H]1[C@H](O)CC(=O)[C@@H]1CCSCCCC(=O)OC (mixture of isomers) [compound (1)-1, methyl 4-((2-((1R,2R,3R)-3-hydroxy-2-((1E,3RS,4S)-3-hydroxy-4-methylnon-1-en-6-yn-1-yl)-5-oxocyclopentyl)ethyl)thio)butanoate] | 169%
